Patent US7553821B2, “Methods for selectively modulating survivin apoptosis pathways” (Yale University, priority 2000, dated 2009)

System: HeLa cells
Test: Nuclear morphology of apoptosis (DAPI) in transfected HeLa cells
Format: cell-based
Description: HeLa cells transfected with GFP-vector (vector), GFP-survivin(T34A) (T34A), or GFP-caspase-9 (Met^1-Asp^330) (caspase-9), were scored morphologically for nuclear integrity by DAPI staining after 48-h. Arrows, nuclear fragmentation and chromatin condensation in GFP-expressing cells.
The experimental procedures are the same as in A. Data are the meaνSEM of four independent experiments.
HeLa cells were transfected with the various indicated combinations of GFP-constructs, with or without etoposide (10 μg/ml) or TNFα (10 ng/ml) plus cycloheximide (10 μg/ml), harvested after 48 h, and GFP-labeled cells were morphologically scored for nuclear fragmentation by DAPI staining, as described in FIG. 2B. DN, dominant negative. Data are the mea±SEM of four independent experiments.
Transfection experiments. For transient transfection, HeLa cells in C-6 tissue culture plates (Costar, Cambridge, Mass.) at ˜60-70% confluency, were incubated in 1 ml of serum-free OptiMEM medium (Life Technologies, Gaithersburg, Md.) for 20 min, and transfected with 2.5 μg of the various plasmid cDNAs plus 9 μl Lipofectamine (Life Technologies). After a 5 h incubation at 37° C., the mixture was aspirated and substituted with complete growth medium for 48-72 h. To generate stable YUSAC-2 transfectants, a survivin(T34A) cDNA was inserted into the HindIII-SpeI sites of the pTet-splice vector (Dr. D. Schatz, Yale University School of Medicine), downstream of the regulatory sequences of the Tet-resistance operon (TetO). YUSAC-2 cells were transfected with 0.8 μg pTet-T34A, 0.8 μg of the transactivation/selection plasmid ptTA-Neo and 5 μl Lipofectamine in 1 ml of OptiMem. Forty-eight h after transfection, cells were re-plated at low density in 15×150 mm plates in growth medium containing 1.5 mg/ml Geneticin (G418, Life Technologies), 2 mM sodium hydroxide and 0.5 μg/ml Tet (Sigma, St. Louis, Mo.) (selection medium). After a 3-week culture, ninety-six individual clones were screened for differential growth in the presence or absence of Tet. […] Flow cytometry. HeLa cells transfected with the various GFP constructs in the presence or in the absence of the broad-spectrum caspase inhibitor Z-VAD-fmk (20 μM) were harvested after 48-h (non-adherent and adherent cells), washed in PBS, pH 7.0, and fixed in cold 70% ethanol for 30 min on ice. After washes in PBS, cells (10×10^6/ml) were stained with 25 μg/ml propidium iodide (Sigma), 0.05% Triton X-100 and 100 μg/ml RNAse A (Boehringer Mannheim, Indianapolis, Ind.) for 45 min at 22° C. Gated GFP-expressing cells were analyzed for DNA content by flow cytometry on a FACSort (Becton Dickinson, San Jose, Calif.) using a Cell Quest software. In other experiments, F5-C4 cells were synchronized at the G1/S boundary by culture with 5-mM thymidine for 16 h at 37° C., in the presence or in the absence of Tet. At the end of the incubation, cells were released from the thymidine block, and harvested at 3-h intervals for DNA content analysis by propidium iodide staining and flow cytometry, or, alternatively, for caspase-9 processing by Western blotting (see below). TUNEL staining. Internucleosomal DNA fragmentation of F5.C4 cells in the presence or in the absence of Tet was carried out by end-labeling with terminal deoxynucleotidyl transferase (TdT) and peroxidase-conjugated anti-digoxigenin antibody using the ApopTag kit (Intergen, Purchase, N.Y.), as described previously (Grossman et al., 1999). Immunoprecipitation and Western blotting. Asynchronously growing or synchronized HeLa cells were lysed in 200 μl of lysis buffer containing 50 mM Tris, pH 7.5, 1% NP-40, 0.25% DOC, 150 mM NaCl, 1 mM PMSF, 10 μg/ml aprotinin, 10 μg/ml leupeptin, 10 μg/ml pepstatin, 1 mM Na3VO4, 20 mM NaF, 0.2 mM EGTA, 1 mM EDTA, pH 8.0, for 30 min at 4° C. Insoluble material was removed by centrifugation at 14,000 rpm for 15 min, and two-hundred μg of protein lysate was pre-absorbed with 25 μl of a 50:50 Protein A Sepharose slurry (Pharmacia) for 3 h at 4° C. with constant agitation. […]

## survivin(T34A): dominant-negative, non-phosphorylatable survivin mutant with Thr34→Ala substitution, expressed from transfected cDNA (also HA- or GFP-tagged)
GFP fusion, 48 h, no exogenous apoptotic stimuli
  spontaneous chromatin condensation and DNA fragmentation, GFP-expressing cells: ~80%
Survivin BIR domain mutants
  ability to induce spontaneous apoptosis upon transient transfection: particularly effective
